Experimental data: patent US11622967B2 (SUVEN LIFE SCIENCES LIMITED, priority 2018, dated 2023)
Where a name gives a salt, the structure may show the parent alone.

Legend:
[1] = system: male Wistar rats; test: Sleep and wake profile by telemetric EEG in male Wistar rats; type: in vivo, rat; conditions: 10 and 30 mg/kg, p.o., first 4 hours post dosing (FIG. 2)
Source text: (§1) Rats were anesthetized with isoflurane (Baxter India Private Limited; 4% in oxygen for induction; 2% for maintenance) and were fixed into the stereotaxic frame (Stoelting, Ill., USA) to perform surgery. An incision was made to reveal bregma from which coordinates were taken. Telemetric transmitter (Model F40-EET; DSI, St. Paul, Minn., USA) was implanted into intraperitoneal cavity of the rat and leads were tunneled subcutaneously to head. One pair of electrodes were implanted epidurally into the frontal cortex region using stainless steel screws (CMA Microdialysis, Stockholm, Sweden) at coordinates of AP+2.0 mm, ML±2.2 mm (Paxinos and Watson, 2004) for recording of EEG and electrodes were fixed to the skull with dental acrylic cement (DENTALON® plus). The second set of lead wires was implanted into the neck nuchal muscle to record electromyogram (EMG). Incision was closed using non absorbable sutures. After a surgical recovery of minimum 2 weeks, animals were acclimatized to the handling procedures and were given a mock dosing for 3 days before the first experimental day.
On the day of study, transmitter was switched on using magnet and animals were transferred on to the receiver along with the home cage. […]
(§2) Statistical analysis: EEG data was scored with automated standard sleep scoring protocols using Neuroscore. […]

[2] = system: orexin-B-saporin lesioned male Wistar rats; test: Sleep and wake profile by telemetric EEG in orexin-B-saporin lesioned rats (narcolepsy model); type: in vivo, rat
Experimental: Rats were anesthetized with 4% isoflurane (Baxter India Private Limited) and maintained on 2% isoflurane for entire duration of surgery. Under isoflurane anesthesia, rats were placed into a stereotaxic instrument and received bilateral microinjections of 0.5 μL containing 490 ng of orexin-B-saporin conjugate (Advanced Targeting System, San Diego, Calif., USA) or saline solution in the lateral hypothalamus (coordinates: AP: −3.5 mm; ML: ±1.5 mm; DV: −8.7 mm).^3 Microinjections were performed using a glass micropipette (20 μm at the tip). Analgesic and antibiotic treatment were administered at the end of this procedure.
as §1, with “After injection of” for “Rats were anesthetized with isoflurane (Baxter India Private Limited; 4% in oxygen for induction; 2% for maintenance) and were fixed into”, “orexin-B-Saporin, telemetric” for “stereotaxic frame (Stoelting, Ill., USA) to perform surgery. An incision was made to reveal bregma from which coordinates were taken. Telemetric”, “2004)^3” for “2004)”, “EMG.” for “electromyogram (EMG).”, “about 3” for “minimum 2”
On the day of study, transmitter was switched on using magnet and animals were transferred on to the receiver along with the home cage. Recording was started 1 h before lights-off using Ponemah (Version 5.2) software. […] Recording was continued for 8 h post treatment. EEG and EMG were collected as primary signals and sampled at 500 Hz. Whereas, temperature and activity were sampled at 250 Hz. The data was stored for off-line analysis using NeuroScore software (Version 3.0).
Statistical analysis: EEG data was scored with automated standard sleep scoring protocols using Neuroscore. Rodent EEG and EMG data was manually classified into one of three sleep/wake states: awake, REM (Rapid eye movement/Paradoxical sleep), or NREM (Non-rapid eye movement/slow wave sleep) according to visual analysis of EEG frequency and amplitude characteristics and EMG activity using 10 s epochs. Waking activity was defined as relatively low-amplitude EEG activity with low power in the low-frequency bands, accompanied by moderate to high level EMG activity. NREM was defined as generally high-amplitude EEG activity with greater power in the low-frequency bands from 0.5-4 Hz, accompanied by minimal EMG activity. REM sleep was characterized by moderate and constant amplitude EEG activity focused in the θ (6-9 Hz) range with no (or only sporadic) EMG activity. […]

[3] = system: male C57BL/6J mice; test: Sleep and wake profile by telemetric EEG in male C57BL/6J mice; type: in vivo, mouse; conditions: 10 and 30 mg/kg, p.o., first 4 hours post dosing (FIG. 3)
Source text: Mice were anesthetized with isoflurane (Baxter India Private Limited; 4% in oxygen for induction; 2% for maintenance) and were fixed into the stereotaxic frame (Stoelting, Ill., USA) to perform surgery. An incision was made to reveal bregma from which coordinates were taken. Telemetric transmitter (Model F20-EET; DSI, St. Paul, Minn., USA) was implanted into intraperitoneal cavity of the […] and leads were tunneled subcutaneously to head. One pair of flexible spring electrodes were implanted epidurally into the frontal cortex region at coordinates of AP+1.0 mm, ML±2.0 mm (Franklin and Paxinos, 20074) for recording of EEG and electrodes were fixed to the skull with dental acrylic cement (DENTALON® plus). The second set of lead wires was implanted into the neck nuchal muscle to record EMG. Incision was closed using non absorbable sutures. After a surgical recovery of minimum 2 weeks, animals were acclimatized to the handling procedures and were given a mock dosing for 3 days before the first experimental day.
On the day of study, transmitter was switched on using magnet and animals were transferred on to the receiver along with the home cage. Recording was started 3 h after the lights-on using Ponemah (Version 5.2) software. […] Recording was continued for 6 h post treatment. […]
as §2

[4] = system: cortical levels of dopamine and norepinephrine; test: Dopamine and norepinephrine modulation in prefrontal cortex, microdialysis; type: in vivo, rat; conditions: male Wistar rats, 3-30 mg/kg, p.o. (FIG. 7)
Source text: (§3) Male Wistar rats (240-300 g body weight) were stereotaxically implanted with a microdialysis guide cannula in prefrontal cortex (PFC; AP: +3.2 mm, ML: −0.5 mm, DV: −1.0 mm) under isoflurane anesthesia. Co-ordinates were taken according to atlas for the rat brain (Paxinos and Watson 2004) with reference points taken from bregma and vertical from the skull. The rats were allowed to recover individually for four days in a round bottom Plexiglas bowl with free access to feed and water.
(§4) After surgical recovery of 4 days, male Wistar rats were connected to dual quartz lined two-channel liquid swivel (Instech, UK) on a counter balance lever arm, which allowed unrestricted movements of the animal. […]
Quantitation of dopamine and norepinephrine: Monoamines in dialysate were derivatized with dansyl chloride and quantified using LC-MS/MS based method in calibration ranges of 0.07-15 nmol/L for all […] analytes.
(§5) Statistical analysis: All microdialysis data for dopamine and norepinephrine were plotted as percent change from mean dialysate basal concentrations with 100% defined as the average of four pre-dose values. […] Area under the curve (AUC) values for percent change in neurotransmitter levels were calculated and the statistical significance between the mean AUC value were compared against vehicle treatment using one-way ANOVA followed by Dunnett's test. […]

[5] = target: histamine-3 receptor (in-vivo) (Rattus norvegicus (Rat), UniProt Q9QYN8); test: (R)-α-methylhistamine induced dipsogenia assay; conditions: rats, oral, RAMH 2.5 mg/kg s.c.
histamine-3 receptor (in-vivo), sequence (Q9QYN8 whole entry): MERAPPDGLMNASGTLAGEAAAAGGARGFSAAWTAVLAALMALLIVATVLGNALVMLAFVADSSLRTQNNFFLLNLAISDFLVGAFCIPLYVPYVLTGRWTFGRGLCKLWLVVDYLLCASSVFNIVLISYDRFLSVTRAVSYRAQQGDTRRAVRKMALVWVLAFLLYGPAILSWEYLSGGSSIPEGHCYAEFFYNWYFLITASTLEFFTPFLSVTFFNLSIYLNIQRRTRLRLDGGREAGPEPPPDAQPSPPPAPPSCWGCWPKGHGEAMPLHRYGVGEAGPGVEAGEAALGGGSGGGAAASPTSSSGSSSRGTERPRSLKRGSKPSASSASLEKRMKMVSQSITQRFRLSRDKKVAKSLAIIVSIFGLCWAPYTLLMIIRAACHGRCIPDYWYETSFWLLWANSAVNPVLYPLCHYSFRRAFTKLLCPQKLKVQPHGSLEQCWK
Experimental: The experiment consisted of 3 days. The animals were individually housed in their home cages. 24 h water consumption was recorded for 2 days. Rats were randomized according to average of 2 days water consumption. […] Statistical analysis: Data was compared and assessed by one-way ANOVA followed by Dunnett's post hoc test by using graph pad prism software package.

[6] = system: cortical histamine levels; test: Histamine modulation in prefrontal cortex, microdialysis; type: in vivo, rat
Source text: as §3, §4
Quantitation of histamine: Histamine concentrations in dialysates were quantified using post-column derivatization with o-phthalaldehyde employing HPLC coupled to fluorescence detector and analysis was carried out in the calibration range of 33-640 fmol/20 μL
as §5, with “histamine was” for “dopamine and norepinephrine were”, “five” for “four”, “histamine” for “neurotransmitter”

Question: For `O=C(CN1CCOCC1)Nc1ccc(OC2CCN(C3CCC3)CC2)cc1` [SUVN-G3031, N-[4-(1-Cyclobutylpiperidin-4-yloxy)phenyl]-2-(morpholin-4-yl)acetamidedihydrochloride], which “time spent in wake period compared to vehicle” value [1] is on record?
Answer: significantly increased

Question: And the “cataplectic (direct transition of wake to REM) episodes” value ([2]; orexin-B-saporin lesioned rats (FIG. 5))?
Answer: decreased

Question: What about the “wake period compared to vehicle” value ([2]; orexin-B-saporin lesioned rats, first 4 hours post dosing (FIG. 4a)) of the same compound?
Answer: significant increase

Question: What about the REM sleep ([2]; orexin-B-saporin lesioned rats, first 4 hours post dosing (FIG. 4b)) of the same compound?
Answer: significant decrease

Question: And the NREM sleep ([2]; orexin-B-saporin lesioned rats, first 4 hours post dosing (FIG. 4c))?
Answer: no effect

Question: What about the “time spent in wake period compared to vehicle” value [3] of the same compound?
Answer: significant increase

Question: What about the “cortical levels of dopamine” value [4] of the same compound?
Answer: significant increase

Question: And the “cortical levels of norepinephrine” value [4]?
Answer: significant increase

Question: And the “effect on (R)-α-methylhistamine induced dipsogenia (water consumption)” value ([5]; at 60 min (FIG. 1a))?
Answer: blocked

Question: And the “effect on (R)-α-methylhistamine induced dipsogenia (water consumption)” value ([5]; at 120 min (FIG. 1b))?
Answer: blocked

Question: And the “mean AUC of percent change in histamine levels compared to vehicle” value ([6]; male Wistar rats, 0.3, 1 and 10 mg/kg, p.o. (FIG. 6))?
Answer: statistically significant

Question: And the cortical histamine levels ([6]; male Wistar rats, 0.3-10 mg/kg, p.o.)?
Answer: significant increase
